{
  "source": "patent US12152248B2",
  "about": "“Membrane-penetrating peptides to enhanced transfection and compositions and methods for using same” (LIFE TECHNOLOGIES CORPORATION, priority 2013, dated 2024)",
  "assay_type_in_all_cases": "cell-based",
  "key": {"[1]": {"system": "HEK293, HeLa, COS-7, LNCaP, A549 and HepG2", "experiment": "Comparison of transfection reagents, GFP fluorescence images (FIG. 2)", "details": "panel of six cell lines; pcDNAEF1a/emGFP; 48 hrs; Peptide 1 used with LIPOFECTAMINE® 3000", "method": "Transfection complexes for transfecting DNA into cells in culture were prepared according to manufacturer protocol. LIPOFECTAMINE® 2000 and LIPIFECTAMINE® LTX were purchased from Life Technologies Corp. (Carlsbad, CA), FUGENE® HD was purchased from Promega Corp. (Fitchburg, WI), and X-TREMEGENE™ HP was purchased from Roche Diagnostics (Basel, Switzerland).\nTo prepare transfection complexes containing the non-naturally occurring peptides described above, Peptide 1 having the following sequence […] (SEQ ID NO. 89) was synthesized and provided as a dry powder. The dry powder was reconstituted in sterile ultrapure water to a final concentration of 4.35 mg/ml and allowed to fully dissolve. This stock peptide solution was set aside for use in the next step.\nTo prepare the lipid aggregate-DNA-peptide complexes, LIPOFECTAMINE® 3000 reagent (Life Technologies Corp., Carlsbad, CA) was obtained. […]\nFollowing the incubation, the lipid-peptide-DNA complexes were added to cells that were seeded the previous day with fresh growth medium; for 96-well plates, 10 μl of the lipid-peptide-DNA was added to the cells, for 24-well plates, 50 μl of the lipid-peptide-DNA mixture was added to the cells, for 6-well plates, 250 μl of the lipid-peptide-DNA was added to the cells. The cells were incubated in the presence of the lipid-peptide-DNA for approximately 24-48 hrs, and analyzed. […]"}, "HeLa cells [2]": {"system": "HeLa cells", "experiment": "Effect of transfection reagent dosage on transfection efficiency and GFP expression (FIG. 3)", "details": "96-well, 0.1-0.4 μl reagent, Peptide 1 with LIPOFECTAMINE® 3000 vs LIPOFECTAMINE® 2000 and LTX", "from_the_text": "FIG. 3A is a graph comparing the relative transfection efficiency for an expression vector encoding GFP transfected into cultured HeLa cells using increasing dosages of three different commercially available lipid aggregate formulations, LIPOFECTAMINE® 2000 (open circles), LIPOFECTAMINE® LTX (open squares), and LIPOFECTAMINE® 3000 in combination with a peptide according to an embodiment (open triangles);\nFIG. 3B is a graph comparing the intensity of GFP expression in HeLa cells transfected with an expression vector encoding GFP using increasing dosage of three different commercially available lipid aggregate formulations, LIPOFECTAMINE® 2000 (open circles), LIPOFECTAMINE® LTX (open squares), and LIPOFECTAMINE® 3000 in combination with a peptide according to an embodiment (open triangles);\nHeLa cells were plated in 96-well plates and transfected with pcDNAEF1a/emGFP using 0.1 μl, 0.2 μl, 0.3 μl or 0.4 μl of LIPOFECTAMINE® 2000, LIPOFECTAMINE® LTX, or LIPOFECTAMINE® 3000 reagent in combination with Peptide 1 as described in Example 1. Transfection efficiency and relative protein expression as measured by […] was determine for each condition. […]"}, "HeLa cells [3]": {"system": "HeLa cells", "experiment": "GFP transfection with lipid alone, peptide alone or both (FIG. 8)", "details": "96-well, 48 hrs, Peptide 1 in the presence of LIPOFECTAMINE® 3000, 0.05-0.5 μl", "from_the_text": "FIG. 8 are bar graphs depicting relative transfection efficiency (upper graph, GFP+ as % of Single Cells Only) or relative expression level per cell (lower graph; Single cells Only Mean FL-1) of HeLa cells transfected with a GFP expression vector using the indicated doses (in μl) of LIPOFECTAMINE® 3000 alone (LF3K), LIPOFECTAMINE® 2000 (LF2K), a peptide according to an embodiment (Peptide 1) or LIPOFECTAMINE® 3000 in combination with a peptide according to an embodiment (LF3K+ Peptide 1);\nHeLa cells were seeded onto 96-well plates and transfected for 48 hrs with […] of pcDNAEF1a/emGFP using either 0.05 μl, 0.1 μl, 0.2 μl, 0.3 μl, 0.4 μl, or 0.5 μl of LIPOFECTAMINE® 3000 Reagent alone (LF3K), LIPOFECTAMINE® 2000 (LF2K), Peptide 1 alone (Peptide 1), or LIPOFECTAMINE® 3000 in combination with Peptide 1 as described in Example 1 (LF3K+Peptide 1). Transfection efficiency and protein expression as measured by Fluorescence intensity (FL1-H) were determined. Results are depicted in FIG. 8."}},
  "data": [
    {"sequence": "SRRARRSPRESGKKRKRKRGGGSGGGSGGGSRRRRRRRRRRR [Peptide 1, 89; MPP DPV10/6 fused to Linker 1 and cationic CP1]", "values": [
      {"measurement": "transfection efficiency (GFP expression, FIG. 2)", "setting": "[1]", "result": "improved transfection efficiency substantially"},
      {"measurement": "relative expression of GFP (FIG. 3B)", "setting": "HeLa cells [2]", "result": "improves relative expression of GFP in the cells over the entire range of transfection reagent dosages tested"},
      {"measurement": "relative transfection efficiency (FIG. 3A)", "setting": "HeLa cells [2]", "result": "improves transfection efficiency of the cells over the entire range of transfection reagent dosages tested"},
      {"measurement": "transfection efficiency and protein expression (FIG. 8)", "setting": "HeLa cells [3]", "result": "significantly enhances transfection efficiency and protein expression"}
    ]}
  ]
}
